The values that follow come from patent US6750217B2, “Benzenesulfonamide derivatives and their use as MEK inhibitors” (Warner-Lambert Company, priority 1999, dated 2004).

Broadly, the IC50 is the concentration that gives 50% inhibition. Low readings indicate greater potency in that assay, high ones weaker potency in that assay. The term melting point denotes the temperature of the solid-liquid transition.

The target in data set [1] is GST-MEK (p45MEK) / GST-MAPK (p44MAP kinase) (Homo sapiens, UniProt Q02750). As to the kind of experiment: APK IC50; cascade assay for inhibitors of the MAP kinase pathway. It is filed as biochemical. On the procedure: According to one aspect of the invention, the compounds are MEK inhibitors. MEK inhibition assays include the cascade assay for inhibitors of MAP kinase pathway described at column 6, line 36 to column 7, line 4 of U.S. Pat. No. 5,525,625 and the in vitro MEK assay at column 7, lines 4-27 of the same patent, the entire disclosure of which is incorporated by reference (see also Examples 5-10 below).
GST-MEK (p45MEK) / GST-MAPK (p44MAP kinase), sequence (Q02750 whole entry, the tested form may be a part): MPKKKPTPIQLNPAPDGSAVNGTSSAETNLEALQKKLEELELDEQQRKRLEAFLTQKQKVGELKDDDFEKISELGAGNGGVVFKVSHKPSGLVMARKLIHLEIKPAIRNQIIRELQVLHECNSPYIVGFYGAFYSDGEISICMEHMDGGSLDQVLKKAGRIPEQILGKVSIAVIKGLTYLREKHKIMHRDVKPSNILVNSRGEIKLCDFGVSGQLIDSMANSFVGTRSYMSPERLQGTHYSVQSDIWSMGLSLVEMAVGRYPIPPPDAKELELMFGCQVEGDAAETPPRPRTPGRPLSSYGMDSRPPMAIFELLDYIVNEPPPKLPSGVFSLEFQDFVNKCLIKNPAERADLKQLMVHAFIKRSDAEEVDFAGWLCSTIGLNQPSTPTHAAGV
Incorporation of ^32P into myelin basic protein (MBP) is assayed in the presence of a glutathione S-transferase fusion protein containing p44MAP kinase (GST-MAPK) and a glutathione S-transferase fusion protein containing p45MEK (GST-MEK). The assay solution contains 20 mM HEPES, pH 7.4, 10 mM MgCl2, 1 mM MnCl2, 1 mM EGTA, 50,μM [γ-^32P]ATP, 10 μg GST-MEK, 0.5 μg GST-MAPK and 40 μg MBP in a final volume of 100 μL. Reactions are stopped after 20 minutes by addition of trichloroacetic acid and filtered through a GF/C filter mat. ^32P retained on the filter mat is determined using a 120S Betaplate. Compounds are assessed at 10 μM for ability to inhibit incorporation of ^32P.
To ascertain whether compounds are inhibiting GST-MEK or GST MAPK, two additional protocols are employed. In the first protocol, compounds are added to tubes containing GST-MEK, followed by addition of GST-MAPK, MBP and [β-^32P]ATP. In the second protocol, compounds are added to tubes containing both GST-MEK and GST-MAPK, followed by MBP and [β-^32P]ATP.
Compounds that show activity in both protocols are scored as MAPK inhibitors, while compounds showing activity in only the first protocol are scored as MEK inhibitors.

The subject of a further data set is C26 Cells. As to the kind of experiment: C26 Cells. It is filed as cell-based.

SMILES strings stand for the structures.

`COC(=O)c1cc(S(=O)(=O)N(C)C)c(F)c(F)c1Nc1ccc(I)cc1Cl` [PD 193846, 2-(2-Chloro-4-iodo-phenlylamino)-5-dimethylsulfamoyl-3,4-difluoro-benzoic acid methyl ester] gave an IC50 in data set [1] of 222 nM.
Consider `NS(=O)(=O)c1cc(C(=O)O)c(Nc2ccc(I)cc2Cl)c(F)c1F` [PD 215730, 2-(2-Chloro-4-iodo-phenylamino)-3,4-difluoro-5-sulfamoyl-benzoic acid], for which the melting point was 295 to 296 °C (dec.). In data set [1], this compound registered a half-inhibitory concentration (IC50) of 781 nM.
Turning to `COc1ccc(CN(Cc2ccc(OC)cc2)S(=O)(=O)c2cc(C(=O)NOCC3CC3)c(Nc3ccc(I)cc3Cl)c(F)c2F)cc1` [PD 218774, 5-[Bis-(4-methoxy-benzyl)-sulfamoyl]-2-(2-chloro-4-iodo-phenylamino)-N-cyclopropylmethoxy-3,4-difluoro-benzamide], the IC50 in data set [1] was above 3000 nM.
As to `NS(=O)(=O)c1cc(C(=O)NOCC2CC2)c(Nc2ccc(I)cc2Cl)c(F)c1F` [PD 219622, 2-(2-Chloro-4-iodo-phenylamino)-N-cyclopropylmethoxy-3,4-difluoro-5-sulfamoyl-benzamide], the melting point is 219 to 227 °C (dec.). In data set [1], this compound had an IC50 of 186 nM. The same compound yielded an IC50 with C26 Cells of 1600 nM.
In data set [1], `CN(Cc1cccnc1)S(=O)(=O)c1cc(C(=O)O)c(Nc2ccc(I)cc2Cl)c(F)c1F` [PD 219795, 2-(2-Chloro-4-iodo-phenylamino)-3,4-difluoro-5-(methyl-pyridin-3-ylmethyl-sulfamoyl)-benzoic acid] had an IC50 above 3000 nM.
Turning to `NS(=O)(=O)c1cc(C(=O)NO)c(Nc2ccc(I)cc2Cl)c(F)c1F` [PD 224213, 2-(2-Chloro-4-iodo-phenylamino)-3,4-difluoro-N-hydroxy-5-sulfamoyl-benzamide], the melting point is 230 to 236 °C (dec.). Moreover, in data set [1], the 50% inhibitory concentration (IC50) turned out to be 122 nM. This compound came in with an IC50 with C26 Cells of 9100 nM.
Turning to `CN(C)S(=O)(=O)c1cc(C(=O)O)c(Nc2ccc(I)cc2Cl)c(F)c1F` [PD 224339, 2-(2-Chloro-4-iodo-phenylamino)-5-dimethylsulfamoyl-3,4-difluoro-benzoic acid], the IC50 in data set [1] was 283 nM; with C26 Cells it was above 10000 nM.
In the case of `Cc1cc(I)ccc1Nc1c(C(=O)O)cc(S(=O)(=O)N(C)C)c(F)c1F` [PD 224340, 5-Dimethylsulfamoyl-3,4-difluoro-2-(4-iodo-2-methyl-phenylamino)-benzoic acid], the 50% inhibitory concentration (IC50) in data set [1] is 441 nM; in the data set with C26 Cells it was above 10000 nM.
Consider `CN(C)S(=O)(=O)c1cc(C(=O)NOCC2CC2)c(Nc2ccc(I)cc2Cl)c(F)c1F` [PD 250253, 2-(2-Chloro-4-iodo-phenylamino)-N-cyclopropylmethoxy-5-dimethylsulfamoyl-3,4-difluoro-benzamide], for which the melting point was 222 to 225 °C (dec.). For the same compound, in data set [1], the midpoint of inhibition, the IC50, lay at 936 nM.
The like results for `Cc1cc(I)ccc1Nc1c(C(=O)NOCC2CC2)cc(S(=O)(=O)N(C)C)c(F)c1F` [PD 252745, N-Cyclopropylmethoxy-5-dimethylsulfamoyl-3,4-difluoro-2-(4-iodo-2-methyl-phenylamino)-benzamide] were, in that order, 171 to 172 °C and 3700 nM.
